Values quoted from earlier work as cited in US8399018B2, “Controlled release ion channel modulator compositions and methods for the treatment of otic disorders” (priority 2008, dated 2013).

Experiments:
tinnitus = details: administered by IV
V2-R = details: infusion into the scala tympani
guinea pigs = details: chronic administration

In the case of `CCN(CC)CC(=O)Nc1c(C)cccc1C` [Lidocaine], the “sufferers in whom noise associated with tinnitus is reduced or eliminated” value (tinnitus) is listed as 60-80%.

In the case of `Cc1ccccc1C(=O)Nc1ccc(C(=O)N2CCCC(N(C)C)c3ccccc32)cc1` (stereo not drawn) [OPC-31260], the “reduction of Meniere's disease symptoms” value (V2-R) is listed as “marked reduction”.

For `NC(=O)CC[C@@H]1NC(=O)[C@H](Cc2ccccc2)NC(=O)[C@H](Cc2ccc(O)cc2)NC(=O)[C@@H](N)CSSC[C@@H](C(=O)N2CCC[C@H]2C(=O)N[C@@H](CCCN=C(N)N)C(=O)NCC(N)=O)NC(=O)[C@H](CC(N)=O)NC1=O` [VP, vasopressin], the “induction of endolymphatic hydrops” value (guinea pigs) is listed as “induces endolymphatic hydrops”.
